Measurements: patent US8487001B2, “Medium-chain length fatty acids, glycerides and analogues as neutrophil survival and activation factors” (ProMetic BioSciences Inc., priority 2001, dated 2013)

Experiments:
[1] = system: neutrophils (PMN); assay: Doxorubicin-induced neutrophil apoptosis, 4 hr incubation with or without MCT; type: cell-based, human
Experimental: PMN were isolated as described in example 10. Cells (2×10^6/ml) were incubated for 4 hr, at 37° C. in 5% CO2 and 95% humidity in the presence of various concentrations of a chemotherapeutic agent, doxorubicin. Apoptotic cells were evaluated as described in example 10. Data are expressed in percent of apoptotic cells.
PMN were isolated as described in example 10. Cells (2×10^6/ml) were incubated for 4 hr, at 37° C. in 5% CO2 and 95% humidity in the presence of various concentrations of doxorubicin with or without MCT (2.5% and 5.0%). Apoptotic cells were evaluated as described in example 10. Data are expressed in percent of apoptotic cells.
Results are expressed in percent of apoptotic cells after 4 hr of incubation in the presence or the absence of doxorubicin with or without MCT. […] However, in the presence of MCT, at a concentration of 2.5% and 5% (v/v), the apoptotic effects of doxorubicin are inhibited. Thus, MCT exerts an anti-apoptotic action on PMN. Apoptosis was also studied using the annexin V-FITC/PI (propidium iodide) to method according to the manufacturer's Biosources recommendations (Apotarget Annexin-VFITC Apoptosis Kit #PHN 1018). Annexin V binds to phosphatidylserine which is transferred from the internal to external membrane in early to late phase apoptosis. Briefly, neutrophils are incubated in the presence or absence of varying concentrations of doxorubicin and MCT. After 24 hr, neutrophils are washed with PBS and stained with […] of Annexin V-FITC and 10 μl of PI (Sigma, 1 mg/ml) for 20 minutes. After incubation, stained cells were fixed in paraformaldehyde (1%) and analyzed for apoptosis using an XL Flow Cytometer (Coulter). Data were then expressed as the percent of apoptotic cells. FIG. 4A represents a time-course response of MCT on doxorubicin-treated neutrophils.

[2] = Doxorubicin-induced neutrophil apoptosis, comparison to GM-CSF (% PMN viability); type: cell-based, human; details: human
Description: Table 2 represents the effect of GM-CSF, MCT and tricaprylin on doxorubicin-induced human neutrophil apoptosis.

[3] = system: B16F10 melanoma; assay: Antitumor activity in B16F10 melanoma model; type: in vivo, C57BL/6 mice; details: FIG. 10; MCT 25 μMole/mouse i.v. day 7, 9, 14, 16; doxorubicin 10 mg/kg day 10 and 17 (sub-therapeutic); day 22
Experimental: Female 6-8-week old C57BL/6 mice were injected intravenously on day 0 with 1×10^5 B16F10 melanoma cells from ATCC (source of cell culture, Dr. I. J. Fidler). […] Mice were sacrificed on day 22. Body weight and tumor volume were recorded.

SMILES: COc1cccc2c1C(=O)c1c(O)c3c(c(O)c1C2=O)C[C@@](O)(C(=O)CO)C[C@@H]3O[C@H]1C[C@H](N)[C@H](O)[C@H](C)O1 [Doxorubicin, doxorubicin]
- % Apoptosis of neutrophils (PMN) ([1]; Experiment 1, doxorubicin 10^-4 M alone (Control, no MCT)): 27.5%
- % Apoptosis of neutrophils (PMN) ([1]; Experiment 1, doxorubicin 10^-5 M alone (Control, no MCT)): 23.8%
- % Apoptosis of neutrophils (PMN) ([1]; Experiment 1, doxorubicin 10^-6 M alone (Control, no MCT)): 23.2%
- % Apoptosis of neutrophils (PMN) ([1]; Experiment 1, doxorubicin 10^-8 M alone (Control, no MCT)): 18.7%
- % Apoptosis of neutrophils (PMN) ([1]; Experiment 1, doxorubicin 10^-10 M alone (Control, no MCT)): 9.3%
- % Apoptosis of neutrophils (PMN) ([1]; Experiment 2, doxorubicin 10^-4 M alone (Control, no MCT)): 53.2%
- % Apoptosis of neutrophils (PMN) ([1]; Experiment 2, doxorubicin 10^-5 M alone (Control, no MCT)): 66.2%
- % Apoptosis of neutrophils (PMN) ([1]; Experiment 2, doxorubicin 10^-6 M alone (Control, no MCT)): 55.0%
- % Apoptosis of neutrophils (PMN) ([1]; Experiment 2, doxorubicin 10^-8 M alone (Control, no MCT)): 59.2%
- % Apoptosis of neutrophils (PMN) ([1]; Experiment 2, doxorubicin 10^-10 M alone (Control, no MCT)): 60.6%
- effect on PMN apoptosis ([1]; various concentrations of doxorubicin, FIGS. 3A and 3B): induces PMN apoptosis
- viability [2]: 6.82 ± 0.5%
- reduction of the tumor volume [3]: around 25%
